pIC50: −log10 of the molar value. Structures can show the parent of a compound that is named as a salt.

What is called pIC50 is the IC50 on a negative log10 scale, so that one unit is a factor of ten.

Test [1] deals with Fabry disease vascular endothelial cells. As to the kind of experiment: Tube formation experiment with ROCK inhibitors. Type of test: cell-based, human. The settings on record: 5 µM. Here is the method: [Table 1] ROCK inhibitors used in the first experiment
Second experiment: To confirm whether decreased tube formation in vascular endothelial cells derived from Fabry disease-induced pluripotent stem cells was rescued by treatment with 7 types of ROCK inhibitors (netarsudil, ripasudil, sovesudil, AT13148, AR13503, VX-210, and […]), a tube formation experiment was conducted (Table 2). [Table 2] Types of ROCK inhibitors used in the second experiment
Matrigel was applied to a 96-well plate which was then stored in a 5% CO2 incubator a 37°C for one day. The next day, each ROCK inhibitor was added to each well at various concentrations (5 µM, 1 µM, 0.5 µM, 0.1 µM, 0.05 µM, and 0.01 µM) together with […] VEGF in EGM-2 media.
10,000 vascular endothelial cells per well were applied onto the solidified Matrigel, and after one day, each well was photographed under a microscope. Then, the total tube length was analyzed using Image J to compare the increase and decrease in tube formation.

In test [2] the test system is FD-VECs. The test can be described thus: Tube-like structure formation assay of FD-VECs. Type of test: cell-based, human. The settings on record: for tube formation ability: 0.5, 1, and 5 µM, versus DMSO control. Here is the method: FD-iPSC lines that were generated from fibroblasts of three FD patients with a GLA variant were used. A wild-type (WT) iPSC line derived from foreskin fibroblasts and a FD1 isogenic iPSC line were used as controls. Human iPSCs (hiPSCs) were maintained in mTeSR1 medium ([…] Technologies, Vancouver, Canada) on culture plates precoated with Corning Matrigel® hESC-Qualified Matrix. The cells were maintained at 37°C in a 5% CO2 incubator. After 7 days of culture, hiPSC colonies were split at a 1:50 ratio using accutase solution (eBioscience, San Diego, CA, USA) and incubated under the same culture conditions for expansion.
Human iPSCs were differentiated into VECs as described previously, with further optimization. Briefly, hiPSCs were transferred to dishes coated with Matrigel® (BD Biosciences, Franklin Lakes, NJ, USA) and cultured for 2 days in mTESR1 medium ([…] Technologies) at 37°C and 5% CO2. Subsequently, the cells were cultured for a further 2 days in VEC medium (RPMI (HyClone, Logan, MI, USA), 1% B27 (Invitrogen, Carlsbad, CA, USA), and penicillin/streptomycin (Invitrogen)) supplemented with 50 ng/mL Activin A (PeproTech, Rocky Hill, NJ, USA) and 20 ng/mL BMP4 (PeproTech), and 3 µM CHIR990921 (Sigma, St. Louis, MO) at 37°C and 5% CO2. Next, the cells were cultured for 3 days in VEC medium containing 50 ng/mL VEGF-A (PeproTech) and 50 ng/mL bFGF, at 37°C and 5% CO2. To differentiate the vascular progenitors into VECs, CD31^+ cells were sorted from the differentiated cells by MACS using CD31^+ Dynabeads (Thermo Fisher Scientific, Waltham, MA, USA). The CD31^+ cells were transferred to gelatin-coated plates and incubated for 3 days in EGM-2 medium (Lonza, Basel, Switzerland) supplemented with 100 ng/mL VEGF-A and 50 ng/mL bFGF, at 37°C and 5% CO2. The culture medium was changed daily. Finally, the vascular progenitors were cultured in EGM-2 medium without growth factors for 4 days with daily medium change.
To screen for clinical compounds that could rescue FD-VEC dysfunction, VECs were seeded onto gelatin-coated 96-well plates (SPL Life Sciences, Pocheon, Korea) at a density of 3 × 10^3 cells/cm^2 and maintained in EGM-2 medium without growth factors for 24 hours. […] Subsequently, it was examined whether FD-VECs treated with each selected compound could form tube-like structures on Matrigel®-coated plates. The tube-like structure forming assay was repeated at least three times using different concentrations of each selected compound (0.5, 1, and 5 µM).
FD-VECs were dissociated after treatment with Accutase (eBioscience) at 37°C for 5 min. Dissociated cells (1 × 10^4) were transferred to Matrigel® matrix (BD Biosciences) in EGM-2 medium supplemented with 100 ng/mL VEGF-A, and then incubated at 37°C and 5% CO2 for 24 hours. Images of the vascular tube-like structures were taken using an inverted microscope (Olympus, Tokyo, Japan). Total tube lengths were measured using ImageJ software, which was freely provided by the […], and its Angiogenesis Analyzer plugin (Carpentier, 2012).

In a further test the target is Rock1 (Homo sapiens, UniProt Q13464). To be noted: cited from earlier work.
The target of the next test is Rock2 (Homo sapiens, UniProt O75116). The settings on record: cited from earlier work.
Test [3] concerns p-SMAD2, SMAD2, TSP1, KDR, eNOS. The test can be described thus: Western blot analysis of p-SMAD2, TSP1, KDR and eNOS in FD-VECs. It counts as cell-based, human. To be noted: compared to non-treated FD-VECs. (Immunoblotting shows a protein as a band on a membrane.)
Another test has as its system EndMT of FD-VECs. The test can be described thus: EndMT-associated factors in FD-VECs (Western blot, immunostaining). It counts as cell-based, human. The source says:
Hyperactive SMAD2 signaling induces EndMT in VECs, thereby reducing angiogenic functionality. […] Before drug treatment, the present inventors performed bulk RNA sequencing of FD-VECs and FD(c)-VECs to examine the mechanism underlying the defective vasculopathy of FD-VECs.

In test [4] the test system is FD-VECs. The test can be described thus: ROS fluorescence intensity in FD-VECs. It counts as cell-based, human.
Test [5] deals with FD-VECs. As to the kind of experiment: Extracellular flux analysis of oxygen consumption rate (OCR). It counts as cell-based, human.
Test [6] has as its system FD mice (Gla^-/-/TSP1^Tg). As to the kind of experiment: Echocardiography of FD mice after oral administration. Type of test: in vivo. The settings on record: 10 or 30 mg/kg/day for 6 months. The source says: Therefore, the present inventors hypothesized that Gla^-/- mice expressing human TSP1 (Gla^-/-/TSP1^Tg; hereinafter referred to as FD mice) might be an effective animal model for studying FD-related vasculopathy. […] LVH is known to occur in up to half of males and one-third of females in FD patients (Kampmann C, Linhart A, Baehner F, Palecek T, Wiethoff CM, Miebach E, Whybra C, Gal A, Bultas J, Beck M (2008) Onset and progression of the Anderson-Fabry disease related cardiomyopathy. International Journal of Cardiology 130: 367-73). Thus, the present inventors investigated the cardiac functionality in each mouse group via echocardiography.
To this end, FD-mice (Gla^-/-/TSP1^Tg) were produced by crossing transgenic mice expressing human TSP1 with Gla^-/- mice. The produced mice were then orally administered lomerizine (10 or 30 mg/kg/day) for 6 months (FIG. 18A).

The test system of test [7] is FD mice (Gla^-/-/TSP1^Tg). The test can be described thus: Sweat secretion analysis in FD mice. It counts as in vivo. The settings on record: oral, 10 or 30 mg/kg/day for 6 months.
Test [8] deals with FD mice (Gla^-/-/TSP1^Tg). As to the kind of experiment: Heat tolerance test (paw withdrawal latency) in FD mice. It counts as in vivo. To be noted: oral, 10 or 30 mg/kg/day for 6 months.
For test [9], the system named is FD mice (Gla^-/-/TSP1^Tg). As to the kind of experiment: Immunohistochemistry and Western blot of renal tissues of FD mice. Type of test: in vivo. The settings on record: oral administration.

Chain of Rock2 (O75116 whole entry, species assumed): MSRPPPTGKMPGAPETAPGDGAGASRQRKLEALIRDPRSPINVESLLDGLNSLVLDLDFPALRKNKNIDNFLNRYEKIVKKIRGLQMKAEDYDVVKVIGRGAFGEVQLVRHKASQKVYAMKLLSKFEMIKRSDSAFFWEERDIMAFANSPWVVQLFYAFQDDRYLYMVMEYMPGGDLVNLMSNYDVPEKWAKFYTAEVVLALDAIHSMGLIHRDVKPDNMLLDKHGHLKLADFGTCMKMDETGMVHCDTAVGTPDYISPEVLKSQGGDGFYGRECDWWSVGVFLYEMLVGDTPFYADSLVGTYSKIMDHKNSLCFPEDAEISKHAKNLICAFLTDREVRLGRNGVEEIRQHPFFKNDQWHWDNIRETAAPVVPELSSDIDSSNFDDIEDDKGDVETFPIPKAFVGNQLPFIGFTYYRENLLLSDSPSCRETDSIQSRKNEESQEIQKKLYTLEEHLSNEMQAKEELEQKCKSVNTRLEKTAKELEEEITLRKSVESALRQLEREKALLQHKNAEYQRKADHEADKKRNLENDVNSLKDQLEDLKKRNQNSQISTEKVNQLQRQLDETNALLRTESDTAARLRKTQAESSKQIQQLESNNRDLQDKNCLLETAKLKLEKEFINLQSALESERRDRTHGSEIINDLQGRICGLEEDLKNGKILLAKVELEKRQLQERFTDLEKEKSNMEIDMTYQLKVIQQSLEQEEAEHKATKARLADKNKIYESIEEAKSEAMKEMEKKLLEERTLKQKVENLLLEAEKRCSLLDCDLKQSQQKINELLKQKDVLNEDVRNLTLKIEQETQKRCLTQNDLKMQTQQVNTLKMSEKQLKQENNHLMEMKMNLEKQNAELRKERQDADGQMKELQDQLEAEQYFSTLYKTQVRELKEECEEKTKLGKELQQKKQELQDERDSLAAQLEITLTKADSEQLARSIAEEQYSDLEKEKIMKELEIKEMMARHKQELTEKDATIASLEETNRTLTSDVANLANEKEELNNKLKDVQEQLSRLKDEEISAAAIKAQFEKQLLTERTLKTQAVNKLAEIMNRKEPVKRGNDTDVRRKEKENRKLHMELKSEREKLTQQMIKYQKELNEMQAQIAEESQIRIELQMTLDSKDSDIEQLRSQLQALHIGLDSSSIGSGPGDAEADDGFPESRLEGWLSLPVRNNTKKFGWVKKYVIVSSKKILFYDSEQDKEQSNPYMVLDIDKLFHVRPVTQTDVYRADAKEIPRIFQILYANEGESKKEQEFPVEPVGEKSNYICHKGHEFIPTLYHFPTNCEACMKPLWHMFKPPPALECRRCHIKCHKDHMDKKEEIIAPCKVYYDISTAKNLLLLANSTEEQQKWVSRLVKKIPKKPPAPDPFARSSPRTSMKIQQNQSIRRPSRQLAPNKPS
Chain of Rock1 (Q13464 whole entry, species assumed): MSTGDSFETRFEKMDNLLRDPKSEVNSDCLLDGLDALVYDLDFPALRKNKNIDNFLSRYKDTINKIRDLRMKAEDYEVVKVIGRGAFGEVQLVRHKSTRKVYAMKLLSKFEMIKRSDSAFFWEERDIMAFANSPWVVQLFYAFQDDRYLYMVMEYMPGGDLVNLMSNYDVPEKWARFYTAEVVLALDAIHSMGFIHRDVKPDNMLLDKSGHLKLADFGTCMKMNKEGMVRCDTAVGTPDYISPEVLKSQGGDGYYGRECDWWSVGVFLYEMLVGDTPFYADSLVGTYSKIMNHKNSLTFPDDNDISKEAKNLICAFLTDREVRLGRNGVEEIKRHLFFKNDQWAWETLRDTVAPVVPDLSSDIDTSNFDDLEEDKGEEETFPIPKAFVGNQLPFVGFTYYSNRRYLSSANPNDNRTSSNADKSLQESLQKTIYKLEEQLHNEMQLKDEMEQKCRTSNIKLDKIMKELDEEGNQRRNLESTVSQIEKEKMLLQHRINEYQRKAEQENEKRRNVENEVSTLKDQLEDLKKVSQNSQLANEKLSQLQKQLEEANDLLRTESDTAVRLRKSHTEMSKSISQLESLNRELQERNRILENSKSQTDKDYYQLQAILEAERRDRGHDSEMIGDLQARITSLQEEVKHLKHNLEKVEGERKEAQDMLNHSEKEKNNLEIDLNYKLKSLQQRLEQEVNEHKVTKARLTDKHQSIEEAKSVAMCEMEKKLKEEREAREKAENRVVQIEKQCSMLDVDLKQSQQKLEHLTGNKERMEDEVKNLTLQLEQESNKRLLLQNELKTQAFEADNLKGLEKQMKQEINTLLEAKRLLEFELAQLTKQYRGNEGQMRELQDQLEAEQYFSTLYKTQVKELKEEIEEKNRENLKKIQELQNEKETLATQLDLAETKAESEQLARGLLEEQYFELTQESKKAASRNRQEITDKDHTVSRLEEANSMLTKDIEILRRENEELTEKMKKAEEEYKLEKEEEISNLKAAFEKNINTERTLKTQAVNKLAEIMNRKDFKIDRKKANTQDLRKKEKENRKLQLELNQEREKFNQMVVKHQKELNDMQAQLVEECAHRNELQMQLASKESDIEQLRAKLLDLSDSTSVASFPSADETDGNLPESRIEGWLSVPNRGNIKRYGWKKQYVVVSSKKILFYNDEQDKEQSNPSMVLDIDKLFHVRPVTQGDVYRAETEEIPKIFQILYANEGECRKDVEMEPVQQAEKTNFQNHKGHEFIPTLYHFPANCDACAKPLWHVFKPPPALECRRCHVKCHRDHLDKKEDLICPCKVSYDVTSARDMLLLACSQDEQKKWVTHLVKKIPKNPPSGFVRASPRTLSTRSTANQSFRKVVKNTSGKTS

In the case of `C[C@H]1CNCCCN1S(=O)(=O)c1cccc2cncc(F)c12` [Ripasudil hydrochloride hydrate], in [1], the “tube formation ability of Fabry disease vascular endothelial cells” value is “increased the tube formation ability”.
In the case of `Cc1c(Cl)cccc1Nc1ccccc1C(=O)O` [tolfenamic acid], the tube formation ability entry with FD-VECs [2] is listed as “relatively higher tube formation ability”.
For the compound `NC[C@@](O)(c1ccc(Cl)cc1)c1ccc(-c2cn[nH]c2)cc1` [AT-13148], in [1], the “tube formation ability of Fabry disease vascular endothelial cells” value is listed as “increased the tube formation ability”. The figures for the pIC50 on Rock1 and on Rock2 were 8.22 and 8.40, respectively.
Turning to `NC(=O)c1ccc(-c2nc(-c3ccc4c(c3)OCO4)c(-c3ccccn3)[nH]2)cc1` [SB431542], the “tube formation ability of Fabry disease vascular endothelial cells” value in test [1] was “increased tube formation ability”.
As for `C[C@@H](N)[C@H]1CC[C@H](C(=O)Nc2ccncc2)CC1` [Y27632], the “tube formation ability of Fabry disease vascular endothelial cells” value in [1] was “effective in improving the impaired tube formation ability”.
On to `C[C@@H](N)c1ccc(C(=O)Nc2ccnc3[nH]ccc23)cc1` [Y39983], for which the “tube formation ability of Fabry disease vascular endothelial cells” value in test [1] is given as “effective in improving the impaired tube formation ability”.
Take `O=C(Nc1ccncc1)c1cc([N+](=O)[O-])ccc1Cl` [T0070907]: the tube formation ability entry with FD-VECs [2] is “relatively higher tube formation ability”.
Turning to `NC[C@@H](C(=O)Nc1ccc2cnccc2c1)c1ccc(CO)cc1` [AR-13503], the “tube formation ability of Fabry disease vascular endothelial cells” value in [1] is reported as “increased the tube formation ability”. Moreover, on Rock2, the pIC50 was 8.38.
In the case of `COc1ccc(CN2CCN(C(c3ccc(F)cc3)c3ccc(F)cc3)CC2)c(OC)c1OC` [lomerizine], the tube formation ability result in the test with FD-VECs [2] is on record as “relatively higher tube formation ability”. In addition, the optimal concentration in the test on FD-VECs [2] (based on tube formation of FD-VECs) is on record as 1 µM. Moreover, the “tube formation ability of VECs derived from FD-iPSC lines with distinct GLA mutations” value in the test with FD-VECs [2] (fasudil at 5 µM) is given as “enhanced”. Moreover, the “total tube length of FD-VECs” value in the test on FD-VECs [2] (tube formation assay, versus untreated FD-VECs) is given as “significantly increased”. For the same compound, in [3], the “levels of KDR and eNOS” value is on record as “increased”; the “levels of p-SMAD2 and TSP1” value is “reduced”. Besides, in the test with EndMT of FD-VECs (Western blot), the “levels of mesenchymal-related markers (COL1A1, ACTA2, SNAI1, and TWIST)” value was “reduced”; the “protein level of CD31” value is “increased”. Besides, the “fluorescence intensities of EndMT-related factors (ACTA2, SNAI1, COL1A1)” value in the test on EndMT of FD-VECs (immunostaining) is “reduced”. The “level of ROS” value in the test on FD-VECs [4] was “reduced the excess ROS produced in FD-VECs to the same level as that in WT- and FD(c)-VECs”. In the test with FD-VECs [5], the maximal respiration entry was “slight decrease”. Further, in test [6], the “LV mass/BW” value is given as “reduced”; the “cardiac ejection fraction, fractional shortening, and cardiac output” value was “significant improvements”. The “anhidrosis (number of sweat spots)” value in test [7] is “rescued this phenotype”. Besides, the “heat insensitivity (paw withdrawal latency)” value in test [8] is “rescued this phenotype”. In addition, in [9] (Western blot), the “protein levels of fibrotic and inflammatory markers in renal tissues” value is reported as “reduced”. Also, in test [9] (immunohistochemistry), the “CD31+ACTA2+ cells in renal tissues” value is recorded as “reduced this increase”; the “expression levels of F4/80 and LCN2 in renal tissues” value was “reduced”; the “expression of COL1A1 in renal tissues” value is on record as “downregulated”.
Take `CC1=C(C(=O)Nc2cc3cn[nH]c3cc2F)C(c2ccc(C(F)(F)F)cc2)CC(=O)N1` (stereo not shown) [GSK429286A]: the “tube formation ability of Fabry disease vascular endothelial cells” value in [1] is listed as “effective in improving the impaired tube formation ability”.
Still for that read-out and setting: under Netarsudil mesylate stands “increased the tube formation ability”.
Turning to `NC(=O)c1ccc(-c2nc(-c3ccc4c(c3)OCCO4)c(-c3ccccn3)[nH]2)cc1` [D-4476], in the test with FD-VECs [2], the tube formation ability entry is “relatively higher tube formation ability”.
With `CCOC(CN1CCN(CC(C)C(=O)c2ccccc2)CC1)c1ccccc1` (stereo not shown) [eprazinone], the tube formation ability result in the test on FD-VECs [2] is reported as “relatively higher tube formation ability”.
As to `CCCOC(=O)c1cccc(-c2cc(C(=O)Nc3ccncc3F)ccc2CN)c1` [AMA-0076, Sovesudil], the “tube formation ability of Fabry disease vascular endothelial cells” value in test [1] is “increased the tube formation ability”. In addition, the pIC50 is 8.43 on Rock1 and 7.64 on Rock2.

Source of the values: patent EP4631504A1, “COMPOSITION FOR PREVENTION OR TREATMENT OF FABRY'S DISEASE” (Korea Advanced Institute of Science and Technology, priority 2022, dated 2024).
